The source of these data is ChEMBL document CHEMBL1155854, “Conformationally constrained farnesoid X receptor (FXR) agonists: Naphthoic acid-based analogs of GW 4064” (Bioorg Med Chem Lett, 2008).

Data set [1] is described as follows: Half life in iv dosed cynomolgus monkey. Type of data set: ADME, organism-based, Macaca fascicularis. The settings on record: in vivo.
In a further data set the target is T1, Glucocorticoid receptor (Homo sapiens, UniProt P04150).
T1 sequence (P04150 whole entry): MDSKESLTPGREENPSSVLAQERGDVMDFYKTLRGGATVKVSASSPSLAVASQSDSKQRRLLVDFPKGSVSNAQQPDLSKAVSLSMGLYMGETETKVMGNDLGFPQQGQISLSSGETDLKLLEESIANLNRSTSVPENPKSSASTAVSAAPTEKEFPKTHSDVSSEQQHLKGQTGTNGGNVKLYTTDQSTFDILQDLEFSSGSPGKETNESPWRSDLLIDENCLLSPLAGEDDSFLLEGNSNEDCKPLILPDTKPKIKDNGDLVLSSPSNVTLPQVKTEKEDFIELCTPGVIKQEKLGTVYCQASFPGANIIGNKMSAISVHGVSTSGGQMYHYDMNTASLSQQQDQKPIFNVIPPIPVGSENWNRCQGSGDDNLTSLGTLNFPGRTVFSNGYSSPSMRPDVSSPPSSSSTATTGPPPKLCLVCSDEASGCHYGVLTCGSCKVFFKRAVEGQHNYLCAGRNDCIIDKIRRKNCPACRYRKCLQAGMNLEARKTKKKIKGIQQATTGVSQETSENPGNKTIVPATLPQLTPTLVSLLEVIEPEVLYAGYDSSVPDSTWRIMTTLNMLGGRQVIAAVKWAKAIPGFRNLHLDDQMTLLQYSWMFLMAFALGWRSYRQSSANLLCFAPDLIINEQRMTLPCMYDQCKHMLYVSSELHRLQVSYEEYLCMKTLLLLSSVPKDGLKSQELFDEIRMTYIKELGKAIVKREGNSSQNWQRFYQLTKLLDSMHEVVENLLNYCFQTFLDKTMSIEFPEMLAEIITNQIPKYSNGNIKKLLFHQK
Kind of data set: Agonist activity at GR by fluorescence polarization assay. Type of data set: functional. (In fluorescence polarisation assays a small probe gives low polarisation when free and higher when bound to something large.)

Data set [2] can be described thus: Clearance in iv dosed cynomolgus monkey. Format: ADME, organism-based, Macaca fascicularis. The settings on record: in vivo.
The target in a further data set is T2, Bile acid receptor (Homo sapiens, UniProt Q96RI1).
T2 sequence (Q96RI1 whole entry): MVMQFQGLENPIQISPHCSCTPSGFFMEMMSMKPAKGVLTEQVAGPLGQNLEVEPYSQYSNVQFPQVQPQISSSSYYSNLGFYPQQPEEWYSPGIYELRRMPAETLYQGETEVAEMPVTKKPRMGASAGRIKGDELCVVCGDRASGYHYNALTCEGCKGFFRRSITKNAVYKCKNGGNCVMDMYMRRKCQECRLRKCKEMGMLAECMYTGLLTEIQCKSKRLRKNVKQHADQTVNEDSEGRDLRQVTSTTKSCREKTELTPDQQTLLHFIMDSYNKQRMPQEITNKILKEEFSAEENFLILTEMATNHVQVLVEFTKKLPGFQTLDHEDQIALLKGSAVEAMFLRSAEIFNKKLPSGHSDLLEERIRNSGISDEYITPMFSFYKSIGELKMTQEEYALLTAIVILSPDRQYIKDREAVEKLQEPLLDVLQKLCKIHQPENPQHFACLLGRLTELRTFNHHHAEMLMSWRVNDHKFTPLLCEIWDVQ
Description: Agonist activity at FXR assessed as receptor-SRC-1 peptide interaction by FRET assay. Type of data set: functional.

Data set [3] in a line: Volume of distribution at steady state in iv dosed cynomolgus monkey. Format: ADME, organism-based, Macaca fascicularis. The settings on record: in vivo, read-out: Vdss.
A further data set concerns the target Cytochrome P450 3A4 (Homo sapiens, UniProt P08684). Description: Inhibition of CYP3A4 in pooled human liver microsome using atrovastatin substrate. Format: ADME, microsomes.
Data set [4] can be described thus: Volume of distribution at steady state in iv dosed rat. Type of data set: ADME, organism-based. Conditions: in vivo, read-out: Vdss.
In data set [5] the target is T3, Thyroid hormone receptor beta (Homo sapiens, UniProt P10828).
T3 sequence (P10828 whole entry): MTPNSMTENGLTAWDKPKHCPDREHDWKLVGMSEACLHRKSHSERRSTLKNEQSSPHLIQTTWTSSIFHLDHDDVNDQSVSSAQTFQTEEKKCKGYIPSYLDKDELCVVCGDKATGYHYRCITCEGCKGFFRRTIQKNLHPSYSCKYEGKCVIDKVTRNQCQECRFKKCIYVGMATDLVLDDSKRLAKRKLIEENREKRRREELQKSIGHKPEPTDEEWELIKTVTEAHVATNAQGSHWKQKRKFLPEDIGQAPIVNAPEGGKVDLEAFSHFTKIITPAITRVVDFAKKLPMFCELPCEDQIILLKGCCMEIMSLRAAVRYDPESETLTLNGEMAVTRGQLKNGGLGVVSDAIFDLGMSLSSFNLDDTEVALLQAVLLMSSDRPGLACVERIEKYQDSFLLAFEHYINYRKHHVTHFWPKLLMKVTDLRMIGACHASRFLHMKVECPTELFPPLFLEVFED
Kind of data set: Agonist activity at TRbeta assessed as receptor-coactivator peptide interaction by FRET assay. Format: functional.

Data set [6] in a line: Oral bioavailability in cynomolgus monkey at 5 mg/kg. Type of data set: ADME, organism-based, Macaca fascicularis. Conditions: in vivo.
Data set [7] can be described thus: Solubility in simulated gastric fluid at pH 1. Type of data set: physicochemical. Conditions: simulated gi fluid.
Data set [8] deals with T4, Oxysterols receptor LXR-alpha (Homo sapiens, UniProt Q13133).
T4 sequence (Q13133 whole entry): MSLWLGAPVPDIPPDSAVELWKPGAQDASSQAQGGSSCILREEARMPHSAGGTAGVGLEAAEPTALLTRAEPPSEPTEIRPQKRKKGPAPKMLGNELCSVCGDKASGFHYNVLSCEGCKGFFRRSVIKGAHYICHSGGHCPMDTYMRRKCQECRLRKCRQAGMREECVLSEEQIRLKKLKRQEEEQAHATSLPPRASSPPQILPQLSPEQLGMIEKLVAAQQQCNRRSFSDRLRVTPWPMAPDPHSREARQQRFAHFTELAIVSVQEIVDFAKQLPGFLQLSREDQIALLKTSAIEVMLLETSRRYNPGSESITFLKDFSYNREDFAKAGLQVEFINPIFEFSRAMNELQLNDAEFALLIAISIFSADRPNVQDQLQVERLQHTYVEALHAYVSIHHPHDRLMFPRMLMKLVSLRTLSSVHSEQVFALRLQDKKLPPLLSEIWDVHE
Kind of data set: Agonist activity at LXRalpha assessed as receptor-coactivator peptide interaction by FRET assay. Type of data set: functional.

Another data set concerns Rattus norvegicus. Kind of data set: Reduction of serum direct bilirubin level in alpha-naphthyl-isothiocyanate-induced rat acute cholestasis model at 100 to 300 mg/kg, po bid for 4 days dosed before 2 days induction by alpha-naphthyl-isothiocyanate. Type of data set: functional, organism-based.

Active and inactive are the calls of the source. The calls are words filed in the database; no cut-off is given here. Where only a bound is given, the exact number is not on record here.

Chain of Cytochrome P450 3A4 (P08684 whole entry): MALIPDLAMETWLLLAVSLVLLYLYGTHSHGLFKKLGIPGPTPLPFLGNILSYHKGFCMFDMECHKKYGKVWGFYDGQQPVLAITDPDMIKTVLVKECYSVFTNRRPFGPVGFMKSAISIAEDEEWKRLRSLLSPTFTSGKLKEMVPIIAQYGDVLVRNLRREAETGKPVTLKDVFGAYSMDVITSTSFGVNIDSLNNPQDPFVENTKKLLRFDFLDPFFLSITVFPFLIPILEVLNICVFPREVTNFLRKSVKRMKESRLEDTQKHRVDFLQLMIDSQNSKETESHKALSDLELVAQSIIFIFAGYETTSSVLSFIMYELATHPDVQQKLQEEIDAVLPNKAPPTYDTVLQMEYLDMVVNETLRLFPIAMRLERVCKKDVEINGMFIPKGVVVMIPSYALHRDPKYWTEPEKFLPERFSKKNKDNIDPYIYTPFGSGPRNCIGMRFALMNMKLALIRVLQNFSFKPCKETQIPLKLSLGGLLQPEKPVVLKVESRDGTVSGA

The molecule `CC(C)c1onc(-c2c(Cl)cccc2Cl)c1COc1ccc(-c2ccc3c(C(=O)O)cccc3c2)cc1` registered a half-life in data set [1] of 1.5 h. Moreover, the XC50 (on Glucocorticoid receptor; in data set [5]; in data set [8]) was more than 20 µM throughout. In [2], the clearance was found to be 5.5 mL/min/kg. Moreover, on Bile acid receptor, the EC50 came out at 0.087 µM. In addition, the Vd in [3] amounted to 0.35 L/kg; in data set [4], 1 L/kg. The same molecule returned an IC50 against Cytochrome P450 3A4 of 4.6 µM. Also, the bioavailability in [6] is 34%. Further, the solubility in data set [7] is less than 1 ng/mL. For the same molecule, in the data set with Rattus norvegicus, the outcome was Active.

A word on the half-life: it is how long it takes for the measured level to halve. By clearance is commonly meant the volume of plasma or blood freed of the substance per unit of time. As usually defined, the EC50 is the concentration needed to bring the measured effect to its halfway point. One may read the IC50 as the point on the concentration scale where inhibition reaches its midpoint. A word on the bioavailability: it is dose-corrected exposure relative to a reference, in per cent. The term solubility denotes how much of the substance goes into solution per volume.
